pKi: −log10 of the molar value.
What follows are compounds tested against T1, full length human recombinant glucocorticoid receptor (Homo sapiens, UniProt P04150) (assay: Glucocorticoid Receptor Binding Assay (fluorescence polarization competitor assay, Fluormone GS Far Red tracer)).
T1 construct: partially purified full length human recombinant glucocorticoid receptor; purchased Panvera/Invitrogen PV4302
T1 sequence (P04150 1-777): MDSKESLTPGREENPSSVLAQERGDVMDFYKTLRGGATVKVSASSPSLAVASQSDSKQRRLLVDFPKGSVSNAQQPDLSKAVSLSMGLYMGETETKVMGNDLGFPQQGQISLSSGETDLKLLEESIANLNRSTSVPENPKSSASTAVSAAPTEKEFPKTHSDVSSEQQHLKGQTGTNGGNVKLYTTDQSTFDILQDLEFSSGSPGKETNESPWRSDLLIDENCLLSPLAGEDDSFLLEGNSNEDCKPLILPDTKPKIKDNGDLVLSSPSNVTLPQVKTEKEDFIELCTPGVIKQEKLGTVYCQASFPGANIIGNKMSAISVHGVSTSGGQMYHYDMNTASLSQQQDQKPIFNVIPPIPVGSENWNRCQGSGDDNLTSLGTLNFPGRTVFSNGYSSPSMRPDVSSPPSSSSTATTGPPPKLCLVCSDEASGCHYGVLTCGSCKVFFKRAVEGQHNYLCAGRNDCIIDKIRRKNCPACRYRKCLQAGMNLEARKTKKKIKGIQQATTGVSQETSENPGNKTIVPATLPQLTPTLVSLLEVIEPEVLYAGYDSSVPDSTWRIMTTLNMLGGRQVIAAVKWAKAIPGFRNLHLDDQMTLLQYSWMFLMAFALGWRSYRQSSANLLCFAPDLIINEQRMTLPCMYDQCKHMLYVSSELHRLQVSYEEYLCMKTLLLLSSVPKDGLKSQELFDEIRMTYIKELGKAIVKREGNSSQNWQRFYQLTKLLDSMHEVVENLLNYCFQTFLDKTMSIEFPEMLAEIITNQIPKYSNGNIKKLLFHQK
Method in brief: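 Serially diluted compounds competed with the tight-binding far-red fluorescent ligand for recombinant full-length human glucocorticoid receptor plus GR-stabilizing peptide (screening buffer pH 7.4; 3 h, 22 °C, dark). Polarization (610-660 nm) gave IC50 via sigmoidal dose-response fits, and Ki was derived by Cheng-Prusoff from tracer concentration and Kd.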

pKi	SMILES
6.44	Cc1cc(C(O)(C(C)c2ccc(Oc3ccc(C(=O)O)nn3)cc2Cl)C(F)(F)F)ccn1 (centres unmarked) [Example 105, 6-{3-Chloro-4-[3,3,3-trifluoro-2-hydroxy-1-methyl-2-(2-methyl-pyridin-4-yl)-propyl]-phenoxy}-pyridazine-3-carboxylic acid]
7.39	COC(=O)c1cnc(Oc2ccc(C(C)C(O)(c3ccnc(Cl)c3)C(F)(F)F)c(Cl)c2)nc1 (centres unmarked) [Example 116, 2-{3-Chloro-4-[2-(2-chloro-pyridin-4-yl)-3,3,3-trifluoro-2-hydroxy-1-methyl-propyl]-phenoxy}-pyrimidine-5-carboxylic acid methyl ester]
8.19	Cc1cc(C(O)(C(C)c2ccc(-c3cccc(CC(=O)O)c3)cc2Cl)C(F)(F)F)ccn1 (centres unmarked) [Example 63, {3′-Chloro-4′-[3,3,3-trifluoro-2-hydroxy-1-methyl-2-(2-methyl-pyridin-4-yl)-propyl]-biphenyl-3-yl}-acetic acid]
6.85	C[C@H](c1ccc(C(=O)NCc2ccc(C(=O)O)cc2)cc1Cl)[C@@](O)(c1ccnc(Cl)c1)C(F)(F)F (stereo in doubt) [Example 37, 4-({3-Chloro-4-[2-(2-chloro-pyridin-4-yl)-3,3,3-trifluoro-2-hydroxy-1-methyl-propyl]-benzoylamino}-methyl)-benzoic acid]
8.31	COC(=O)c1ccc(Oc2ccc([C@@H](C)[C@@](O)(c3ccc(=O)n(C)c3)C(F)(F)F)c(Cl)c2)cc1Cl (stereo in doubt) [Example 153, 2-Chloro-4-{3-chloro-4-[3,3,3-trifluoro-2-hydroxy-1-methyl-2-(1-methyl-6-oxo-1,6-dihydro-pyridin-3-yl)-propyl]-phenoxy}-benzoic acid methyl ester]
7.73	COC(=O)c1ccc(-c2ccc([C@@H](C)[C@@](O)(c3ccnc(Cl)c3)C(F)(F)F)c(Cl)c2)cc1 (stereo in doubt) [Example 49, 3′-Chloro-4′-[2-(2-chloro-pyridin-4-yl)-3,3,3-trifluoro-2-hydroxy-1-methyl-propyl]-biphenyl-4-carboxylic acid methyl ester]
7.83	Cc1cc([C@](O)([C@H](C)c2ccc(Oc3ccc(C(=O)O)cn3)cc2Cl)C(F)(F)F)cn(C)c1=O [Example 247, 6-{3-Chloro-4-[(1R,2R)-2-(1,5-dimethyl-6-oxo-1,6-dihydro-pyridin-3-yl)-3,3,3-trifluoro-2-hydroxy-1-methyl-propyl]-phenoxy}-nicotinic acid]
8.62	Cc1cc(C(O)(C(C)c2ccc(Oc3ccc(C(=O)O)cc3)cc2Cl)C(F)(F)F)ccn1 (centres unmarked) [Example 58, 4-{3-Chloro-4-[3,3,3-trifluoro-2-hydroxy-1-methyl-2-(2-methyl-pyridin-4-yl)-propyl]-phenoxy}-benzoic acid]
8.04	COC(=O)c1ccnc(COc2ccc(C(C)C(O)(c3ccnc(C)c3)C(F)(F)F)c(Cl)c2)c1 (centres unmarked) [Example 99, 2-{3-Chloro-4-[3,3,3-trifluoro-2-hydroxy-1-methyl-2-(2-methyl-pyridin-4-yl)-propyl]-phenoxymethyl}-isonicotinic acid methyl ester]
7.30	C[C@@H](c1ccc(-c2ccc(Cl)c(C(=O)O)c2)cc1Cl)[C@](O)(c1ccc(=O)n(C)c1)C(F)(F)F (stereo in doubt) [Example 170, 4,3′-Dichloro-4′-[3,3,3-trifluoro-2-hydroxy-1-methyl-2-(1-methyl-6-oxo-1,6-dihydro-pyridin-3-yl)-propyl]-biphenyl-3-carboxylic acid]
6.75	CC(c1ccc(NS(=O)(=O)c2ccc(C(=O)O)cc2)cc1Cl)C(O)(c1ccnc(Cl)c1)C(F)(F)F (centres unmarked) [Example 76, 4-{3-Chloro-4-[2-(2-chloro-pyridin-4-yl)-3,3,3-trifluoro-2-hydroxy-1-methyl-propyl]-phenylsulfamoyl}-benzoic acid]
8.89	Cc1cc([C@](O)([C@H](C)c2ccc(Oc3ncc(C(=O)O)cc3Cl)cc2Cl)C(F)(F)F)sc1C#N (stereo in doubt) [Example 234, 5-Chloro-6-{3-chloro-4-[2-(5-cyano-4-methyl-thiophen-2-yl)-3,3,3-trifluoro-2-hydroxy-1-methyl-propyl]-phenoxy}-nicotinic acid]
8.01	COC(=O)c1cnc(OCc2ccc([C@@H](C)[C@@](O)(c3ccnc(Cl)c3)C(F)(F)F)c(Cl)c2)cn1 (stereo in doubt) [Example 120, 5-{3-Chloro-4-[2-(2-chloro-pyridin-4-yl)-3,3,3-trifluoro-2-hydroxy-1-methyl-propyl]-benzyloxy}-pyrazine-2-carboxylic acid methyl ester]
7.42	CCOC(=O)c1cc(-c2ccc([C@H](C)[C@](O)(c3ccc(OC)nc3)C(F)(F)F)c(Cl)c2)ccc1Cl (stereo in doubt) [Example 180, 4,3′-Dichloro-4′-[3,3,3-trifluoro-2-hydroxy-2-(6-methoxy-pyridin-3-yl)-1-methyl-propyl]-biphenyl-3-carboxylic acid ethyl ester]
7.97	COC(=O)c1ccc(Oc2ccc(C(C)C(O)(c3ccnc(Cl)c3)C(F)(F)F)c(Cl)c2)nc1 (centres unmarked) [Example 118, 6-{3-Chloro-4-[2-(2-chloro-pyridin-4-yl)-3,3,3-trifluoro-2-hydroxy-1-methyl-propyl]-phenoxy}-nicotinic acid methyl ester]
7.17	Cc1cc([C@](O)([C@H](C)c2ccc(OCc3cnn(CC(=O)O)c3)cc2Cl)C(F)(F)F)ccn1 (stereo in doubt) [Example 103, (4-{3-Chloro-4-[3,3,3-trifluoro-2-hydroxy-1-methyl-2-(2-methyl-pyridin-4-yl)-propyl]-phenoxymethyl}-pyrazol-1-yl)-acetic acid]
8.44	COC(=O)c1ccc(COc2ccc(C(C)C(O)(c3ccnc(C)c3)C(F)(F)F)c(Cl)c2)c(OC)c1 (centres unmarked) [Example 95, 4-{3-Chloro-4-[3,3,3-trifluoro-2-hydroxy-1-methyl-2-(2-methyl-pyridin-4-yl)-propyl]-phenoxymethyl}-3-methoxy-benzoic acid methyl ester]
6.81	C[C@H](c1ccc(C(=O)NCc2ccc(CC(=O)O)cc2)cc1Cl)[C@@](O)(c1ccnc(Cl)c1)C(F)(F)F (stereo in doubt) [Example 43, [4-({3-Chloro-4-[2-(2-chloro-pyridin-4-yl)-3,3,3-trifluoro-2-hydroxy-1-methyl-propyl]-benzoylamino}-methyl)-phenyl]-acetic acid]
7.47	COC(=O)C(C)c1ccc(COc2ccc([C@@H](C)[C@@](O)(c3cnc(C)cn3)C(F)(F)F)c(Cl)c2)cc1 (stereo in doubt) [Example 17, 2-(4-{3-Chloro-4-[3,3,3-trifluoro-2-hydroxy-1-methyl-2-(5-methyl-pyrazin-2-yl)-propyl]-phenoxymethyl}-phenyl)-propionic acid methyl ester]
7.88	COC(=O)Cc1ccc(COc2ccc([C@@H](C)[C@@](O)(c3ccnc(Cl)c3)C(F)(F)F)c(Cl)c2)cc1 (relative stereo) [Example 23, (4-{3-Chloro-4-[2-(2-chloro-pyridin-4-yl)-3,3,3-trifluoro-2-hydroxy-1-methyl-propyl]-phenoxymethyl}-phenyl)-acetic acid methyl ester]
